Experimental data as given in patent US20050272677A1, “Delivery of a substance to a pre-determined site” (priority 2002, published 2005).

Tests used:
[1] = Sol-gel phase transition temperature and photo-switching by CD spectroscopy; format: physicochemical
Description: (§1) In a typical gelation experiment, a carefully weighed amount of the dithienylcyclopentene derivative under investigation and 1 ml of the solvent are placed in a test tube, which is sealed and then heated until the compound is dissolved. The solution is allowed to cool to room temperature. […] The gelation process could be followed by UV-vis and CD spectroscopy as depicted in FIG. 58. At low concentrations (0.35 mM), compound D is dissolved in toluene. […] Increasing the concentration to 1.8 mM causes gelation of the solvent, which is accompanied by a change of the UV-visible spectrum, together with the appearance of a strong CD signal at 323 nm (FIG. 58, panels (a) and (c)). Similar changes in the UV-vis and CD spectrum are observed upon gelation of the 1.8 mM solution of D in toluene by cooling to a temperature below the sol-gel phase transition (from here on, referred to as gel(o)). From a plot of the increase of the CD signal versus the temperature, the sol-gel phase transition temperature of gel(o) was determined to be 29° C. for a 1.8 mM solution of D in toluene.
In a typical photo-switching experiment, a solution (1.8 mM) of Compound D in toluene was prepared by cooling from 70° C. to the desired temperature (typically between 30° C. and 60° C., i.e., above the gel-sol phase transition temperature of the open form of D) in a cuvette of 1 mm path length. This solution was then irradiated at λ1=313 nm to convert the ring-open form of Compound D to the ring-closed form. By using a 150 W Xe lamp and a 313 nm bandpass filter, the photo-stationary state (PSS) was reached, typically within 10 minutes, which consist of 60 mol % of the closed form and 40 mol % of the open form.

[2] = Gelation experiment (gel formation in solvents); format: physicochemical
Description: To obtain a gel or to thicken the solvent, the compound is mixed with the required solvent or a mixture of solvents in an amount between 0.01 and 50 wt. %, based on the weight of the composition. Typically, the dissolution of the components will be performed by heating (in some cases it may be helpful to homogenize the components, e.g., vortex) them together at temperatures of 20° C. to 200° C., preferably 50° C. to 150° C. Cooling these hot solutions to a preferred temperature in the range of −20° C. to 100° C., preferably 4° C. to 100° C. affords the gel or thickened solvent. […] In an alternative embodiment, the gelling agent is first dissolved in a polar or apolar solvent followed by the addition of another solvent or solvent mixture, thereby causing gelation to take place.
It will be understood that the use of the present gelling agents or thickeners to prepare a gel or to thicken a composition is also encompassed by the invention. As is well-known, gelling behavior of compounds or compositions is highly unpredictable. […] Preferably, the gelling phenomenon is thermoreversible.
as §1

[3] = Urinary excretion of MAG3 after subcutaneous or intravenous injection; conditions: free compound
Description: The effect of drug formulation on the rate of drug release in vivo was tested in the rat by external counting of radioactivity.
DOPC/DOPS (90:10, mol/mol) liposomes with or without the MscL-mutant G22C were used (protein-to-lipid ratio of 1:20, wt/wt).
Encapsulation of MAG3 in liposomes was performed by freezing/thawing three times followed by extrusion through a 400 nm filter. The free fraction of the compound was removed by G50 Sephadex column separation.
The normal liposomes were loaded with MAG3 in 0.9% NaCl and eluted on the G50 column with 25 mM HEPES pH 8, 150 mM NaCl.
Male Wistar rats were anaesthetized using iso-flurane O2/NO throughout the study. Liposome-encapsulated MAG3 in a 0.5 ml volume was injected subcutaneously (in the neck) and accumulation of radioactivity in the urinary bladder constantly monitored by external counting using a gamma-camera (window: 140 keV, 250 keV width, one minute time resolution). At the end of the study (after 40 minutes), a ten times higher dose of free MAG3 was administered subcutaneously or intravenously to measure the urinary excretion rates of those formulations.

α-chymotrypsin = α-chymotrypsin (Bos taurus, UniProt P00766); assay: Cleavage of prodrug-gelling agent conjugate by α-chymotrypsin in gel and solution; format: biochemical
Description: The prodrug has been mixed with several gelators (neutral: C3-Am-Meth-Am-CH2CH2OCH2CH2OH as well as ionizable: DBC and C3-Am-Meth-OH) and stabile gels were obtained (0.25 wt % of the prodrug and 0.5 wt % of the gelator). […] This difference could be observed with the naked eye: after 20 minutes, the solution containing the prodrug turned bright yellow (due to the release of nitroaniline, whereas the gel containing the prodrug turned slightly yellow only after 20 hours.

[4] = Gelation in the presence of surfactants and polymeric micelles; format: physicochemical; parameters: key: g = gel; i = insoluble; p = precipitate; sol = soluble
[5] = Gelation in the presence of surfactants and polymeric micelles; format: physicochemical; parameters: key: G = gel; C = crystalline; G^a: ^a= not stable
[6] = Urinary excretion of IOT after subcutaneous injection; format: in vivo, rat; conditions: conscious rats
Description: DOPC/DOPS (90:10, mol/mol) and DOPC/DOPE liposomes (70:30, mol/mol) liposomes were tested.
Male Wistar rats remained conscious throughout the study. To increase the time-resolution, the diuretic furosemide (10 mg/kg dose s.c) was given in the morning, seven hours before administration of the sample. Urine was collected automatically with a one hour resolution. The concentration of IOT in the urine was measured by HPLC.

[7] = In vivo delivery of radio-labeled myoglobin with Sunfish/co-lipid complexes
Description: The low molecular-weight protein myoglobin was chosen as the model protein, the molecular weight is 17.8 kDa and iso-electric point 7.3. To enable quantification of organ uptake of myoglobin, myoglobin was radio-labeled with ^125Iodine-tyramine-cellobiose that is retained within the cell in which it is internalized.
The complexation was performed by mixing 3.5 μg of myoglobin in Tricine buffer (pH 8.5) with 75 nmol liposomes consisting of Sunfish and co-lipid in a molar ratio of 1:1 in 5% glucose solution.
Study 2: For complexation, SF-30, in combination with cholesterol in a molar ratio of 1:1, was used. […]
Study 2: BALB/c mice were injected intravenously with ^125Iodine-tyramine-cellobiose-labeled myoglobin complexed with different PEGylated lipid formulations. The mice were sacrificed after 10, 30 or 120 minutes following injection and the body distribution of ^125Iodine was determined. […]
The organ uptake is expressed as the percentage of injected dose ^125Iodine (tyramine-cellobiose) radioactivity. […] The total percentage of radioactivity in the blood was determined by multiplying the percentage per milliliter blood by 0.073 times the body weight in grams, being the total blood volume of the mouse. To allow an accurate comparison, the ratio between radioactivity in total blood and reticuloendothelial system (RES=liver+spleen) was expressed. […]

MscL = MscL (Escherichia coli, UniProt P0A742, G22C); format: biochemical, E. coli; parameters: made in house; host or cells: E. coli PB104; conditions: for calcein release upon addition of MTS compound, versus MTSET: G22C in DOPC:DOPS liposomes, 2.5 mM MTSEA, 10 mM MTSES
Description: Results Overexpression and Purification of the MscL Channel Protein
Samples were prepared and calcein efflux was monitored as described elsewhere in Example 1.
300 μl of detergent-treated liposomes were gently mixed with 240 μl of 0.25 mg/ml purified MscL-mutant G22C in elution buffer containing 0.2% Triton X-100. The mixture was incubated at 60° C. for 45 minutes, followed by the addition of an equal volume (540 μl) of calcein-loading buffer, containing 200 mM calcein, 25 mM Tris, 1 mM EDTA, pH 8.0. After addition of 20 mg of Triton X-100-absorbing Bio-Beads SM-2, the mixture was gently agitated for one hour at room temperature. Subsequently, 80 mg Bio-Beads were added and incubated at 4° C. overnight under mild agitation. Samples were prepared for calcein efflux assay as described elsewhere.

[8] = Subcutaneous pH reduction by MES buffer; format: in vivo, rat; conditions: pH 6.1, 0.5 ml s.c.
Description: Male Wistar rats remained conscious throughout the study. The subcutaneous pH was constantly recorded using a micro-glass electrode. After stabilization of the pH, 0.5 ml MES buffer (pH 6.1) was injected approximately 3 mm from the pH electrode. The effect of different molarities (50, 100 and 250 mM) of the MES buffer on the time-course of pH reduction was tested.

[9] = test system: pB104 strain (MscL null E. coli); assay: MTSET shock assay on agar plates with IPTG; format: cell-based; parameters: Growth −MTSET-shock: key to the marks not given beside the values
Description: The constructs of the G20C^Ll, V21C^Ll and G22C^Ec MscL-6His mutants were constructed using standard molecular biology techniques. The mutants were tested in pB104 strain (MscL null E. coli) by a MTSET shock assay on agar plates with IPTG (A. F. Batiza, et al., 2002, PNAS, 99:5643-5648).

MscL-mutant G22C = MscL-mutant G22C (Escherichia coli, UniProt P0A742, G22C); conditions: DOPC:DOPS (9:1) liposomes, 1 mM MTSET
Description: DOPC:DOPS (9:1 mol/mol) liposomes containing the G22C MscL were prepared as described previously. […] The labeled insulin was encapsulated by three freeze-thaw cycles, followed by extrusion through a 400 nm polycarbonate membrane.
Samples were taken at different time points and triton was added as a control for maximum fluorescence (100%). Samples were filtered over a 450 nm Cellulose Nitrate filter (Schleicher & Schuell BA85). The filtrate of 2 ml was retained and the fluorescence of 200 μl of each filtrate was monitored in a f1600 platereader (Bio-Tek). All experiments were performed in triplo.

[10] = DOPC:DOPS (90:10) liposomes, 1 mM MTSET

For `Cc1sc(C(=O)N[C@H](C)c2ccccc2)cc1C1=C(c2cc(C(=O)N[C@H](C)c3ccccc3)sc2C)CCC1` [Compound D, 1,2-Bis(2′-methyl-5′-{(((R)-1-phenylethyl)amino)carbonyl}thien-3′-yl)cyclopentene], the “sol-gel phase transition temperature of gel(c,I)” value ([1]; 1.8 mM in toluene, after irradiation at 313 nm (PSS)) was 62 °C, the “sol-gel phase transition temperature of gel(o)” value ([1]; 1.8 mM in toluene, open form) was 29 °C and the “increase of thermal stability compared to gel(o)” value ([1]; gel(c,I)) was “more than 30 °C”. The solvents gelated [2] was “cyclohexane, 1-phenyloctane, toluene, n-butylether, benzene, tetralin”.

With mertiatide [MAG3] the “time to 50% urinary excretion” value ([3]; intravenous) was 3 min and the “time to 50% urinary excretion” value ([3]; subcutaneous) was > 12 min.

With “CHex(AmEtOEtOH)2(AmPhe-pNA) [compound 16]” the “time until gel turned slightly yellow (release of nitroaniline)” value (α-chymotrypsin; 0.25 wt % prodrug in mixed gel, 0.5 wt % gelator) was 20 h and the “time until solution turned bright yellow (release of nitroaniline)” value (α-chymotrypsin; prodrug in solution layered with α-chymotrypsin) was 20 min.

In the case of `O=C(N[C@@H](CSSC[C@H](NC(=O)c1ccccc1)C(=O)O)C(=O)O)c1ccccc1` [DBC, dibenzoyl-L-cystine, reference compound], the Gelation properties ([4]; Pluronic P 105, 5 mg · ml^−1) is reported as “g”, the Gelation properties ([4]; Pluronic P 105, 5 mg · ml^−1, * pH reversible gelation) is reported as “g” and the Gelation properties ([4]; Pluronic P 105, 5 mg · ml^−1, ** pH reversible then thermoreversible gelation) is reported as “g”. For the same molecule, the Gelation properties ([4]; Pluronic P 105, 100 mg · ml^−1, * pH reversible gelation) was “g”, the Gelation properties ([4]; Pluronic P 105, 100 mg · ml^−1, ** pH reversible then thermoreversible gelation) was “g” and the “response of gel to reducing agent” value (1 wt % gel, tris-(2-carboxy ethyl)phosphine) was “gel-to-sol transition”. For the same molecule, the “gelation by pH decrease through D-gluconic acid formation” value (D-glucose, glucose oxidase, catalase, NaHCO3, after three days) was “completely gelified”, the Gelation properties ([5]; CTAB < CMC, * pH reversible gelation) was “G” and the Gelation properties ([5]; CTAB < CMC, ** pH reversible then thermoreversible gelation) was “G”. The Gelation properties ([5]; CTAB > CMC, * pH reversible gelation) was “G”, the Gelation properties ([5]; CTAB > CMC, ** pH reversible then thermoreversible gelation) was “G” and the Gelation properties ([5]; Lactose der. < CMC, * pH reversible gelation) was “G”. The Gelation properties ([5]; Lactose der. < CMC, ** pH reversible then thermoreversible gelation) was “G”, the Gelation properties ([5]; Lactose der. > CMC, * pH reversible gelation) was “G” and the Gelation properties ([5]; Lactose der. > CMC, ** pH reversible then thermoreversible gelation) was “G”. For the same molecule, the Gelation properties ([5]; Nonionic (Lactose der.) < CMC) was “G”, the Gelation properties ([5]; Nonionic (Lactose der.) > CMC) was “G” and the Gelation properties ([5]; Pluronic P 105, 100 mg · ml^−1) was “g^a”. For the same molecule, the Gelation properties ([5]; SDS < CMC, * pH reversible gelation) was “G”, the Gelation properties ([5]; SDS < CMC, ** pH reversible then thermoreversible gelation) was “G” and the Gelation properties ([5]; SDS > CMC, * pH reversible gelation) was “G”. The Gelation properties ([5]; SDS > CMC, ** pH reversible then thermoreversible gelation) was “G”, the Gelation properties ([5]; anionic (SDS) < CMC) was “G” and the Gelation properties ([5]; anionic (SDS) > CMC) was “G”. For the same molecule, the Gelation properties ([5]; cationic (CTAB) < CMC) was “G” and the Gelation properties ([5]; cationic (CTAB) > CMC) was “C”.

For `CNC(=O)c1c(I)c(NC(C)=O)c(I)c(C(=O)O)c1I` [IOT, Iodo-thalamate], the “urinary excretion of IOT after subcutaneous injection” value [6] was “completed in the first couple of hours after injection”.

With “1-(polyethyleneglycol5000-ω-methylether)-4-(10′-cis-nonadecenyl)pyridinium Bromide [SF-79]” the blood/RES ratio ([7]; 30 minutes after administration, complex containing 20% SF-79) was “one” and the “circulation time / radioactivity in the blood” value ([7]; 120 minutes after injection, PEGylated complexes) was “the highest amount of radioactivity in the blood”.

For “sodium (2-sulfonatoethyl)methane thiosulfonate [MTSES, reference compound]”, the “calcein release upon addition of MTS compound, versus MTSET” value (MscL) was “the kinetics of release are significantly slower”.

With “2-aminoethyl methanethiosulfonate [MTSEA, reference compound]” the “calcein release upon addition of MTS compound, versus MTSET” value (MscL) was “the kinetics of release are significantly slower”.

In the case of `O=S(=O)(O)CCN1CCOCC1` [MES], the “time for subcutaneous pH to return to pH 7.4” value ([8]; 50 mM) is reported as “ten”, the “time for subcutaneous pH to return to pH 7.4” value ([8]; 100 mM) is reported as “ten” and the “time pH remained below pH 6.5” value ([8]; 250 mM) is reported as “more than 30 minutes”.

B1: G22C E. coli (protein, UniProt P0A742 1-136, looked up, variant G22C)
Large-conductance …: MSIIKEFREFAMRGNVVDLAVCVIIGAAFGKIVSSLVADIIMPPLGLLIGGIDFKQFAVTLRDAQGDIPAVVMHYGVFIQNVFDFLIVAFAIFMAIKLINKLNRKKEEPAAAPAPTKEEVLLTEIRDLLKEQNNRS
With B1 the “Growth after +MTSET-shock” value [9] was “−”, the “Growth −MTSET-shock” value [9] was “++++” and the FITC insulin efflux (MscL-mutant G22C) was “release of FITC insulin through MscL-mutant G22C upon activation with 1 mM MTSET”. For the same molecule, the encapsulated calcein released (MscL; [10]) was 80% and the “time in which half of the MscL-mediated efflux occurs” value (MscL; [10]) was “seven”.
